From US9549921B2, “Heterocyclic compounds and methods of use thereof for the treatment of hepatitis C” (priority 2014, dated 2017)
Where two headings read alike, the source gives them in different places.

What was measured:
[1] = system: HCV replicon genotype 1a; experiment: HCV replicon assay, genotype 1a (cell ELISA for NS3/4A); assay type: cell-based, hepatitis C virus
Protocol: (§1) The HCV NS5B inhibitory activity of the present compounds may be tested using assays known in the art. The HCV NS5B polymerase inhibitors described herein have activities in a genotype 1b replicon assay as described in the Examples. The assay is performed by incubating a replicon harboring cell-line in the presence of inhibitor for a set period of time and measuring the effect of the inhibitor on HCV replicon replication either directly by quantifying replicon RNA level, or indirectly by measuring enzymatic activity of a co-encoded reporter enzyme such as luciferase or β-lactamase. By performing a series of such measurements at different inhibitor concentrations, the effective inhibitory concentration of the inhibitor (EC50 or EC90) is determined. See Jan M. Vrolijk et al., A replicons-based bioassay for the measurement of interferons in patients with chronic hepatitis C, 110 J. VIROLOGICAL METHODS 201 (2003). Such assays may also be run in an automated format for high through-put screening. See Paul Zuck et al., A cell-based β-lactamase reporter gene assay for the identification of inhibitors of hepatitis C virus replication, 334 ANALYTICAL BIOCHEMISTRY 344 (2004).
(§2) Measurement of inhibition by compounds was performed using the HCV replicon system. Several different replicons encoding different HCV genotypes or mutations were used. In addition, potency measurements were made using different formats of the replicon assay, including different ways of measurements and different plating formats. See Jan M. Vrolijk et al., A replicons-based bioassay for the measurement of interferons in patients with chronic hepatitis C, 110 J. VIROLOGICAL METHODS 201 (2003); Steven S. Carroll et al., Inhibition of Hepatitis C Virus RNA Replication by 2′-Modified Nucleoside Analogs, 278(14) J. BIOLOGICAL CHEMISTRY 11979 (2003). However, the underlying principles are common to all of these determinations, and are outlined below.
(§3) Stable neomycin phosphotransferase encoding replicons-harboring cell lines were used, so all cell lines were maintained under G418 selection prior to the assay. Potency was deteremined using a cell ELISA assay with an antibody to the replicons encoded NS3/4a protease. See Caterina Trozzi et al., In Vitro Selection and Characterization of Hepatitis C Virus Serine Protease Variants Resistant to an Active-Site Peptide Inhibitor, 77(6) J. Virol. 3669 (2003). To initiate an assay, replicon cells were plated in the presence of a dilution series of test compound in the absence of G418. Typically, the assays were performed in a 96-well plate formate for manual operation, or a 384-well plate format for automated assay. Replicon cells and compound were incubated for 96 hours. At the end of the assay, cells were washed free of media and compound, and the cells were then lysed. RNA was quantified indirectly through detection of replicon-encoded NS3/4A protein levels, through an ELISA-based assay with an antibody specific for NS3/4A. IC50 determinations were calculated as a percentage of a DMSO control by fitting the data to a four-parameter fit function and the data obtained is provided in the table below.
(§4) Data for selected compounds of the present invention was obtained for genotypes 1a and 1b using this method and is provided in the table below: […]

[2] = system: HCV replicon genotype 1b; experiment: HCV replicon assay, genotype 1b (cell ELISA for NS3/4A); assay type: cell-based, hepatitis C virus
Protocol: as §1, §2, §3, §4

[3] = read-out: 1a IC50, HCV genotype 1a replicon cells, 96 hours incubation, NS3/4A ELISA readout, % of DMSO control
[4] = read-out: 1b IC50, HCV genotype 1b replicon cells, 96 hours incubation, NS3/4A ELISA readout, % of DMSO control
[5] = Hepatitis C virus, 96 h, read-out: 1b IC50 (nM), HCV genotype 1b replicon cells, 96 hours incubation, NS3/4A ELISA readout, % of DMSO control
[6] = Hepatitis C virus, 96 h, read-out: 1a IC50 (nM), HCV genotype 1a replicon cells, 96 hours incubation, NS3/4A ELISA readout, % of DMSO control

## CNC(=O)c1c(-c2ccc(F)cc2)oc2cc(N(C)S(C)(=O)=O)c([C@@H]3CCCN(c4nc5c(F)cccc5[nH]4)C3)cc12 (single isomer, unassigned) [Example 56, 5-(1-(4-fluoro-1H-benzo[d]imidazol-2-yl)piperidin-3-yl)-2-(4-fluorophenyl)-N-methyl-6-(N-methylmethylsulfonamido)benzofuran-3-carboxamide]
[1]; [3]
  IC50: 53.7 nM
[2]; [4]
  IC50: 23.9 nM

## CNC(=O)c1c(-c2ccc(F)cc2)oc2cc(N(C)S(C)(=O)=O)c([C@@H]3CCCN(c4ncc(-c5ccc(F)cc5)o4)C3)cc12 (single isomer, unassigned) [Example 57, 2-(4-fluorophenyl)-5-(1-(5-(4-fluorophenyl)oxazol-2-yl)piperidin-3-yl)-N-methyl-6-(N-methylmethylsulfonamido)benzofuran-3-carboxamide]
[1]; [3]
  IC50: 19.9 nM
[2]; [5]
  IC50: 22.2 nM

## CNC(=O)c1c(-c2ccc(F)cc2)oc2cc(N(C)S(C)(=O)=O)c([C@@H]3CCCN(c4ncc(-c5ccc(F)cc5)o4)C3)cc12 (single isomer, unassigned) [Example 58, 2-(4-fluorophenyl)-5-(1-(5-(4-fluorophenyl)oxazol-2-yl)piperidin-3-yl)-N-methyl-6-(N-methylmethylsulfonamido)benzofuran-3-carboxamide]
[1]; [3]
  IC50: 132 nM
[2]; [4]
  IC50: 36.1 nM

## CNC(=O)c1c(-c2ccc(F)cc2)oc2cc(N(C)S(C)(=O)=O)c([C@@H]3CCCN(C(=O)C4C5COCC54)C3)cc12 (stereo in doubt) [Example 59, 2-(4-fluorophenyl)-N-methyl-6-[methyl(methylsulfonyl)amino]-5-[1-(3-oxabicyclo[3.1.0]hex-6-ylcarbonyl)piperidin-3-yl]-1-benzofuran-3-carboxamide]
[1]; [6]
  IC50: 308 nM
[2]; [5]
  IC50: 120 nM

## CNC(=O)c1c(-c2ccc(F)cc2)oc2cc(N(C)S(C)(=O)=O)c([C@@H]3CCCN(C(=O)C4CC4c4ccc(F)cc4)C3)cc12 (stereo in doubt) [Example 61, 2-(4-fluorophenyl)-5-(1-{[2-(4-fluorophenyl)cyclopropyl]carbonyl}piperidin-3-yl)-N-methyl-6-[methyl(methylsulfonyl)amino]-1-benzofuran-3-carboxamide]
[1]; [6]
  IC50: 251 nM
[2]; [5]
  IC50: 99.5 nM

## CNC(=O)c1c(-c2ccc(F)cc2)oc2cc(N(C)S(C)(=O)=O)c([C@@H]3CCCN(C(=O)c4cc5cccnc5[nH]4)C3)cc12 (stereo in doubt) [Example 66, 2-(4-fluorophenyl)-N-methyl-6-[methyl(methylsulfonyl)amino]-5-[1-(1H-pyrrolo[2,3-b]pyridin-2-ylcarbonyl)piperidin-3-yl]-1-benzofuran-3-carboxamide]
[1]; [6]
  IC50: 92.6 nM
[2]; [5]
  IC50: 21.2 nM

## CNC(=O)c1c(-c2ccc(F)cc2)oc2cc(N(C)S(C)(=O)=O)c([C@@H]3CCCN(C(=O)Cc4ccc(F)cn4)C3)cc12 (stereo in doubt) [Example 70, 2-(4-fluorophenyl)-5-{1-[(5-fluoropyridin-2-yl)acetyl]piperidin-3-yl}-N-methyl-6-[methyl(methylsulfonyl)amino]-1-benzofuran-3-carboxamide]
[1]; [6]
  IC50: 207 nM
[2]; [5]
  IC50: 67.9 nM

## CNC(=O)c1c(-c2ccc(F)cc2)oc2cc(N(C)S(C)(=O)=O)c(C3CC(c4nc5c(F)cccc5o4)CN(C)C3)cc12 (stereo not drawn) [Example 1, 5-(5-(4-fluorobenzo[d]oxazol-2-yl)-1-methylpiperidin-3-yl)-2-(4-fluorophenyl)-N-methyl-6-(N-methylmethylsulfonamido)benzofuran-3-carboxamide]
[1]; [6]
  IC50: 56.9 nM
[2]; [5]
  IC50: 34.3 nM

## CNC(=O)c1c(-c2ccc(F)cc2)oc2cc(N(C)S(C)(=O)=O)c([C@@H]3CCCN(S(=O)(=O)c4cc5cccc(F)c5[nH]4)C3)cc12 [Example 2, (S)-5-(1-((7-fluoro-1H-indol-2-yl)sulfonyl)piperidin-3-yl)-2-(4-fluorophenyl)-N-methyl-6-(N-methylmethylsulfonamido)benzofuran-3-carboxamide]
[1]; [6]
  IC50: 84.1 nM
[2]; [5]
  IC50: 41 nM

## CNC(=O)c1c(-c2ccc(F)cc2)oc2cc(N(C)S(C)(=O)=O)c([C@H]3CCCN(S(=O)(=O)c4cc5cccc(F)c5[nH]4)C3)cc12 [Example 3, (R)-5-(1-((7-fluoro-1H-indol-2-yl)sulfonyl)piperidin-3-yl)-2-(4-fluorophenyl)-N-methyl-6-(N-methylmethylsulfonamido)benzofuran-3-carboxamide]
[1]; [6]
  IC50: 148 nM
[2]; [5]
  IC50: 109 nM

## CNC(=O)c1c(-c2ccc(F)cc2)oc2cc(N(C)S(C)(=O)=O)c([C@H]3CCCN(c4nc5c(C#N)cccc5o4)C3)cc12 [Example 4, (R)-5-(1-(4-cyanobenzo[d]oxazol-2-yl)piperidin-3-yl)-2-(4-fluorophenyl)-N-methyl-6-(N-methylmethylsulfonamido)benzofuran-3-carboxamide]
[1]; [6]
  IC50: 7.03 nM
[2]; [5]
  IC50: 6.53 nM

## CNC(=O)c1c(-c2ccc(F)cc2)oc2cc(N(C)S(C)(=O)=O)c([C@@H]3CCCN(c4nc5c(C#N)cccc5o4)C3)cc12 [Example 5, (S)-5-(1-(4-cyanobenzo[d]oxazol-2-yl)piperidin-3-yl)-2-(4-fluorophenyl)-N-methyl-6-(N-methylmethylsulfonamido)benzofuran-3-carboxamide]
[1]; [6]
  IC50: 53.7 nM
[2]; [5]
  IC50: 19.3 nM

## CNC(=O)c1c(-c2ccc(F)cc2)oc2cc(N(C)S(C)(=O)=O)c(C3C[C@@H](c4nc5c(F)cccc5o4)N(C)C3)cc12 (stereo partly drawn) [Example 12, 5-((5S)-5-(4-fluorobenzo[d]oxazol-2-yl)-1-methylpyrrolidin-3-yl)-2-(4-fluorophenyl)-N-methyl-6-(N-methylmethylsulfonamido)benzofuran-3-carboxamide]
[1]; [6]
  IC50: 92.8 nM
[2]; [5]
  IC50: 37.8 nM

## CNC(=O)c1c(-c2ccc(F)cc2)oc2cc(N(C)S(C)(=O)=O)c(C3CNCC(c4cc5c(F)cccc5[nH]4)N3)cc12 (stereo not drawn) [Example 13, 5-(6-(4-fluoro-1H-indol-2-yl)piperazin-2-yl)-2-(4-fluorophenyl)-N-methyl-6-(N-methylmethylsulfonamido)benzofuran-3-carboxamide]
[1]; [6]
  IC50: 140 nM
[2]; [5]
  IC50: 165 nM

## CNC(=O)c1c(-c2ccc(F)cc2)oc2cc(N(C)S(C)(=O)=O)c(C3CCN(C)C(c4cc5c(F)cccc5[nH]4)C3)cc12 (stereo not drawn) [Example 16, 5-(2-(4-fluoro-1H-indol-2-yl)-1-methylpiperidin-4-yl)-2-(4-fluorophenyl)-N-methyl-6-(N-methylmethylsulfonamido)benzofuran-3-carboxamide]
[1]; [6]
  IC50: 333 nM
[2]; [5]
  IC50: 106 nM

## CNC(=O)c1c(-c2ccc(F)cc2)oc2cc(N(C)S(C)(=O)=O)c([C@H]3CCCN(C(=O)c4cc5cccc(F)c5[nH]4)C3)cc12 [Example 31, (R)-5-(1-(7-fluoro-1H-indole-2-carbonyl)piperidin-3-yl)-2-(4-fluorophenyl)-N-methyl-6-(N-methylmethylsulfonamido)benzofuran-3-carboxamide]
[1]; [6]
  IC50: 17.1 nM
[2]; [5]
  IC50: 9.38 nM

## CNC(=O)c1c(-c2ccc(F)cc2)oc2cc(N(C)S(C)(=O)=O)c([C@@H]3CCCN(C(=O)c4cc5cccc(F)c5[nH]4)C3)cc12 [Example 32, (S)-5-(1-(7-fluoro-1H-indole-2-carbonyl)piperidin-3-yl)-2-(4-fluorophenyl)-N-methyl-6-(N-methylmethylsulfonamido)benzofuran-3-carboxamide]
[1]; [6]
  IC50: 53.1 nM
[2]; [5]
  IC50: 19.2 nM

## CCn1c(C(=O)N2CCC[C@@H](c3cc4c(C(=O)NC)c(-c5ccc(F)cc5)oc4cc3N(C)S(C)(=O)=O)C2)cc2c(F)cccc21 [Example 33, (S)-5-(1-(1-ethyl-4-fluoro-1H-indole-2-carbonyl)piperidin-3-yl)-2-(4-fluorophenyl)-N-methyl-6-(N-methylmethylsulfonamido)benzofuran-3-carboxamide]
[1]; [6]
  IC50: 130 nM
[2]; [5]
  IC50: 196 nM
